In PubChem BioAssay AID1963831 (Molecular Pharmacology Branch, DTP, NCI, 2024):

Tested on: 889142-216-R-J1-PDC complex spheroid viability
Assay: Anticancer human tumor 889142-216-R-J1-PDC patient-derived bladder carcinoma cell line growth inhibition [POLQ]
Settings: for IC50: curve of first compound; for viability, T/C: stronger effect = lower value
Outline: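 Patient-derived tumour cells were co-cultured with HUVEC and mesenchymal stem cells as multicellular spheroids at 37 °C. They were treated with POLQ inhibitors (novobiocin, ART-558, RP6685) alone or combined with other agents. Top concentrations were at or near clinical Cmax (otherwise 10 microM; SN-38 at 1 microM), decreasing in half-log steps.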

[1] = second compound 0.0316 µM, first compound 0.0316 µM
[2] = second compound 0.0316 µM, first compound 0.1 µM
[3] = second compound 0.0316 µM, first compound 0.316 µM
[4] = second compound 0.0316 µM, first compound 1 µM
[5] = second compound 0.0316 µM, first compound 3.16 µM
[6] = second compound 0.0316 µM, first compound 10 µM
[7] = second compound 0.1 µM, first compound 0.0316 µM
[8] = second compound 0.1 µM, first compound 0.1 µM
[9] = second compound 0.1 µM, first compound 0.316 µM
[10] = second compound 0.1 µM, first compound 1 µM
[11] = second compound 0.1 µM, first compound 3.16 µM
[12] = second compound 0.1 µM, first compound 10 µM
[13] = second compound 0.316 µM, first compound 0.0316 µM
[14] = second compound 0.316 µM, first compound 0.1 µM
[15] = second compound 0.316 µM, first compound 0.316 µM
[16] = second compound 0.316 µM, first compound 1 µM
[17] = second compound 0.316 µM, first compound 3.16 µM
[18] = second compound 0.316 µM, first compound 10 µM
[19] = second compound 1 µM, first compound 0.0316 µM
[20] = second compound 1 µM, first compound 0.1 µM
[21] = second compound 1 µM, first compound 0.316 µM
[22] = second compound 1 µM, first compound 1 µM
[23] = second compound 1 µM, first compound 3.16 µM
[24] = second compound 1 µM, first compound 10 µM
[25] = second compound 3.16 µM, first compound 0.0316 µM
[26] = second compound 3.16 µM, first compound 0.1 µM
[27] = second compound 3.16 µM, first compound 0.316 µM
[28] = second compound 3.16 µM, first compound 1 µM
[29] = second compound 3.16 µM, first compound 3.16 µM
[30] = second compound 3.16 µM, first compound 10 µM
[31] = second compound 10 µM, first compound 0.0316 µM
[32] = second compound 10 µM, first compound 0.1 µM
[33] = second compound 10 µM, first compound 0.316 µM
[34] = second compound 10 µM, first compound 1 µM
[35] = second compound 10 µM, first compound 3.16 µM
[36] = second compound 10 µM, first compound 10 µM
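Further: spheroids exposed to compounds for seven days.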
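Wherever viability, T/C is given: 100% = DMSO vehicle control viability.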

## CC1COCCN1c1cc(C2(S(C)(=N)=O)CC2)nc(-c2ccnc3[nH]ccc23)n1 (stereo unspecified) + Nc1ccc(C#CCN(C(=O)Cc2ncc(C(F)(F)F)cc2C(F)(F)F)c2ccc(F)cc2)nn1
Second compound 0.0316 µM
  IC50: 2.9 µM
Second compound 0.1 µM
  IC50: 2.59 µM
Second compound 0.316 µM
  IC50: > 10 µM
Second compound 1 µM
  IC50: > 10 µM
Second compound 3.16 µM
  IC50: > 10 µM
Second compound 10 µM
  IC50: > 10 µM
[1]
  viability, T/C: 101%
[2]
  viability, T/C: 82%
[3]
  viability, T/C: 70.8%
[4]
  viability, T/C: 59.3%
[5]
  viability, T/C: 46.1%
[6]
  viability, T/C: 45%
[7]
  viability, T/C: 98%
[8]
  viability, T/C: 89%
[9]
  viability, T/C: 80.8%
[10]
  viability, T/C: 56.1%
[11]
  viability, T/C: 51.5%
[12]
  viability, T/C: 42.4%
[13]
  viability, T/C: 89.5%
[14]
  viability, T/C: 74.7%
[15]
  viability, T/C: 81.8%
[16]
  viability, T/C: 60.9%
[17]
  viability, T/C: 48.9%
[18]
  viability, T/C: 51.8%
[19]
  viability, T/C: 81.8%
[20]
  viability, T/C: 79.2%
[21]
  viability, T/C: 95.3%
[22]
  viability, T/C: 63.2%
[23]
  viability, T/C: 58.6%
[24]
  viability, T/C: 42.8%
[25]
  viability, T/C: 81.7%
[26]
  viability, T/C: 89.3%
[27]
  viability, T/C: 72.1%
[28]
  viability, T/C: 59.2%
[29]
  viability, T/C: 53.9%
[30]
  viability, T/C: 56.5%
[31]
  viability, T/C: 107%
[32]
  viability, T/C: 99.2%
[33]
  viability, T/C: 111%
[34]
  viability, T/C: 62.4%
[35]
  viability, T/C: 61%
[36]
  viability, T/C: 48.4%

## COc1ccc([C@@H](O)c2cc(-c3ncnc4cc(N5CCOCC5)ccc34)c(F)cc2Cl)nn1 + Nc1ccc(C#CCN(C(=O)Cc2ncc(C(F)(F)F)cc2C(F)(F)F)c2ccc(F)cc2)nn1
Second compound 0.0316 µM
  IC50: 3.14 µM
Second compound 0.1 µM
  IC50: 5.02 µM
Second compound 0.316 µM
  IC50: 4.55 µM
Second compound 1 µM
  IC50: 5.06 µM
Second compound 3.16 µM
  IC50: 5.83 µM
Second compound 10 µM
  IC50: 6.74 µM
[1]
  viability, T/C: 84.6%
[2]
  viability, T/C: 80.6%
[3]
  viability, T/C: 81.5%
[4]
  viability, T/C: 87.8%
[5]
  viability, T/C: 49.8%
[6]
  viability, T/C: 35.2%
[7]
  viability, T/C: 113%
[8]
  viability, T/C: 77.5%
[9]
  viability, T/C: 80%
[10]
  viability, T/C: 73.4%
[11]
  viability, T/C: 56.8%
[12]
  viability, T/C: 39.5%
[13]
  viability, T/C: 87.5%
[14]
  viability, T/C: 95%
[15]
  viability, T/C: 72.9%
[16]
  viability, T/C: 72.8%
[17]
  viability, T/C: 54%
[18]
  viability, T/C: 39.6%
[19]
  viability, T/C: 86.2%
[20]
  viability, T/C: 72.1%
[21]
  viability, T/C: 72.4%
[22]
  viability, T/C: 65.9%
[23]
  viability, T/C: 62.2%
[24]
  viability, T/C: 37.8%
[25]
  viability, T/C: 74.3%
[26]
  viability, T/C: 65.4%
[27]
  viability, T/C: 73.8%
[28]
  viability, T/C: 65.2%
[29]
  viability, T/C: 63.2%
[30]
  viability, T/C: 39.3%
[31]
  viability, T/C: 105%
[32]
  viability, T/C: 77.9%
[33]
  viability, T/C: 96.7%
[34]
  viability, T/C: 60.1%
[35]
  viability, T/C: 56.6%
[36]
  viability, T/C: 47.5%

## Cn1ncnc1[C@H]1c2n[nH]c(=O)c3cc(F)cc(c23)N[C@@H]1c1ccc(F)cc1 + Nc1ccc(C#CCN(C(=O)Cc2ncc(C(F)(F)F)cc2C(F)(F)F)c2ccc(F)cc2)nn1
Second compound 0.0316 µM
  IC50: > 0.1 µM
Second compound 0.1 µM
  IC50: > 0.1 µM
Second compound 0.316 µM
  IC50: > 0.1 µM
Second compound 1 µM
  IC50: > 0.1 µM
Second compound 3.16 µM
  IC50: > 0.1 µM
Second compound 10 µM
  IC50: > 0.1 µM
Second compound 0.0316 µM, first compound 0.000316 µM
  viability, T/C: 96.8%
Second compound 0.0316 µM, first compound 0.001 µM
  viability, T/C: 121%
Second compound 0.0316 µM, first compound 0.00316 µM
  viability, T/C: 110%
Second compound 0.0316 µM, first compound 0.01 µM
  viability, T/C: 85.7%
[1]
  viability, T/C: 90.3%
[2]
  viability, T/C: 87.4%
Second compound 0.1 µM, first compound 0.000316 µM
  viability, T/C: 176%
Second compound 0.1 µM, first compound 0.001 µM
  viability, T/C: 83.6%
Second compound 0.1 µM, first compound 0.00316 µM
  viability, T/C: 92%
Second compound 0.1 µM, first compound 0.01 µM
  viability, T/C: 91.4%
[7]
  viability, T/C: 105%
[8]
  viability, T/C: 101%
Second compound 0.316 µM, first compound 0.000316 µM
  viability, T/C: 108%
Second compound 0.316 µM, first compound 0.001 µM
  viability, T/C: 102%
Second compound 0.316 µM, first compound 0.00316 µM
  viability, T/C: 91.3%
Second compound 0.316 µM, first compound 0.01 µM
  viability, T/C: 79.6%
[13]
  viability, T/C: 97.2%
[14]
  viability, T/C: 73.2%
Second compound 1 µM, first compound 0.000316 µM
  viability, T/C: 127%
Second compound 1 µM, first compound 0.001 µM
  viability, T/C: 81.1%
Second compound 1 µM, first compound 0.00316 µM
  viability, T/C: 124%
Second compound 1 µM, first compound 0.01 µM
  viability, T/C: 95.9%
[19]
  viability, T/C: 67.4%
[20]
  viability, T/C: 72.2%
Second compound 3.16 µM, first compound 0.000316 µM
  viability, T/C: 110%
Second compound 3.16 µM, first compound 0.001 µM
  viability, T/C: 124%
Second compound 3.16 µM, first compound 0.00316 µM
  viability, T/C: 135%
Second compound 3.16 µM, first compound 0.01 µM
  viability, T/C: 77.1%
[25]
  viability, T/C: 92.3%
[26]
  viability, T/C: 87.2%
Second compound 10 µM, first compound 0.000316 µM
  viability, T/C: 122%
Second compound 10 µM, first compound 0.001 µM
  viability, T/C: 93.5%
Second compound 10 µM, first compound 0.00316 µM
  viability, T/C: 113%
Second compound 10 µM, first compound 0.01 µM
  viability, T/C: 90.2%
[31]
  viability, T/C: 115%
[32]
  viability, T/C: 80.4%
